Where a SMILES comes first, the peptide text is derived from it. Bridges are numbered along the chain shown (N, C = ends).
Assays:
human MCH receptor [1] = target: T1, human MCH receptor (Homo sapiens, UniProt Q99705); assay: Aequorin bioluminescence functional assay in 293-AEQ17 cells transfected with human MCH receptor; assay type: cell-based; design: expressed in transfected cells; host or cells: 293-AEQ17 (aequorin-expressing HEK-293 reporter line), transient lipofectamine transfection, pcDNA-3 vector; Activity Activation %: concentration or dose not given beside the values; settings: for % Activation at 10 μM: Table 1, aequorin functional assay
T1 sequence (Q99705 whole entry): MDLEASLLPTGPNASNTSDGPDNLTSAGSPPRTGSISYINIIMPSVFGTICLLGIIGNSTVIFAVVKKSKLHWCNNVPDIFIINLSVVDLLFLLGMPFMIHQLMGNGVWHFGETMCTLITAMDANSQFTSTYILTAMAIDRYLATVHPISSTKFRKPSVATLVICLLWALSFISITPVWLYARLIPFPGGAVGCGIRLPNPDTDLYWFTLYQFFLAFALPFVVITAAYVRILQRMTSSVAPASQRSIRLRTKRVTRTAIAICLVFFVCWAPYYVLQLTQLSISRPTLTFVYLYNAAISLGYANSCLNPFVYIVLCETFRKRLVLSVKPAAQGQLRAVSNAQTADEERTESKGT
Method: The aequorin bioluminescence assay is a reliable test for measuring the activity of G protein-coupled receptors that couple through the Gα protein subunit family consisting of Gq and Gll and leads to the activation of phospholipase C, mobilization of intracellular calcium and activation of protein kinase C.
Following approximately 40 hours of expression the apo-aequorin in the cells was charged for 4 hours with coelenterazine (10 μM) under reducing conditions (300 μM reduced glutathione) in ECB buffer (140 mM NaCl, 20 mM KCl, 20 mM HEPES-NaOH [pH=7.4], 5 mM glucose, 1 mM MgCl2, 1 mM CaCl2, 0.1 mg/ml bovine serum albumin).
The cells were harvested, washed once in ECB medium and resuspended to 500,000 cells/ml. 100 μl of cell suspension (corresponding to 5×10^4 cells) was then injected into the test plate containing MCH or MCH analogs, and the integrated light emission was recorded over 30 seconds, in 0.5 second units. 20 μL of lysis buffer (0.1% final Triton X-100 concentration) was then injected and the integrated light emission recorded over 10 seconds, in 0.5 second units. The “fractional response” values for each well were calculated by taking the ratio of the integrated response to the initial challenge to the total integrated luminescence including the Triton X-100 lysis response.

human MCH receptor [2] = target: T1, human MCH receptor; assay: Radiolabeled MCH-R binding assay: inhibition of [125I]-human MCH (Phe13, Tyr19 substituted) binding to cell membranes (filter or SPA format); design: expressed in transfected cells; settings: Table 1; SPA based assay; read-out: Binding Assay IC50
Method: Cell membranes were prepared on ice. Each T-75 flask was rinsed twice with 10 ml of Enzyme-free Cell Dissociation Buffer (Specialty Media, Lavallette, N.J.), and the cell monolayer was detached in an additional 10 ml of Enzyme-free Cell Dissociation Buffer by incubation at room temperature for 10 minutes. Dissociated cells were centrifuged (500×g for 10 minutes at 4° C.), resuspended in 5 ml homogenization buffer (10 mM Tris-HCl, pH 7.4, 0.01 mM Pefabloc, 10 μM phosphoramidon, 40 μg/ml bacitracin) and then homogenized using a glass homogenizer (10–15 strokes). The homogenate was centrifuged for 10 minutes (1,000×g at 4° C.). The resulting supernatant was then centrifuged at 38,700×g for 15 minutes at 4° C. Pelleted membranes were resuspended (passed through 25 gauge needle 5 times), snap-frozen on liquid nitrogen, and stored at −80° C. until use.
Binding was performed in a 96-well filter assay or Scintillation Proximity Assay (SPA)-based format using cell membranes from a stable CHO or HEK-293 cell line expressing the MCH receptor. For the filter assay, reactions were performed at 20° C. for 1 hour in a total volume of 0.2 ml containing: 0.05 ml of membrane suspension (˜3 μg protein), 0.02 ml of [^125I]-human MCH (Phe^13, Tyr^19 substituted; 30 pM), 0.01 ml of competitor and 0.12 ml of binding buffer (50 mM Tris-HCl, pH 7.4, 10 mM MgCl2, 2 mM EDTA, 200 μg/ml bacitracin, 1 μM phosphoramidon).
Bound radioligand was separated by rapid vacuum filtration (Packard Filtermate 96-well cell harvester) through GF/C filters pretreated for 1 hour with 1% polyethylenimine. After application of the membrane suspension to the filter, the filters were washed 3 times with 3 ml each of ice-cold 50 mM Tris-HCl, pH 7.4, 10 mM MgCl2, 2 mM EDTA, 0.04% Tween 20 and the bound radioactivity on the filters was quantitated by scintillation counting (TopCount device).
For the SPA-based assay, WGA-PVT beads (NEN Life Sciences Products) were resuspended in Dulbecco's PBS with calcium and magnesium (500 mg beads in 4 ml PBS). For each 96-well assay plate, 0.18 ml of beads was pre-coated with MCH receptor by mixing with 0.2 ml MCH receptor CHO cell membranes (˜0.2–4 mg protein) and 1.5 ml SPA assay buffer (50 mM Tris-HCl, pH 7.4, 10 mM MgCl2, 2 mM EDTA, 0.1% BSA, 12% glycerol). The suspension was mixed gently for 20 minutes, 12.3 ml of assay buffer and protease inhibitors were added (final concentration given): 2 μg/ml leupeptin, 10 μM phosphoramidon, 40 μg/ml bacitracin, 5 μg/ml aprotinin, 0.1 mM Pefabloc.
Coated beads were kept on ice until use. For each well, 0.145 ml of beads were added to Optiplate assay plates (Packard 6005190), followed by 0.002–0.004 ml of competitor and 0.05 ml of [^125I]-human MCH (Phe^13, Tyr^19 substituted; 30 pM). Binding reactions were allowed to proceed at room temperature for 3 hours. Quantitation was performed by scintillation counting (TopCount device).

[3] = Table 4, position 6 modification
[4] = Table 5, position 10 modification
[5] = Table 6, position 13 modification

Compound | Activity Activation % (human MCH receptor [1]; [3]) | Activity Activation % (human MCH receptor [1]; [4]) | further results
CSCC[C@@H]1NC(=O)[C@@H](N)CSSC[C@@H](C(N)=O)NC(=O)[C@@H]2CCCN2C(=O)[C@H](CCCNC(=N)N)NC(=O)[C@H](Cc2ccc(O)cc2)NC(=O)[C@H](C(C)C)NC(=O)[C@H](CCCNC(=N)N)NC(=O)CNC(=O)[C@H](CC(C)C)NC1=O [compound 37] | 120% |  | 
CSCC[C@@H]1NC(=O)[C@@H](NC(=O)[C@H](CCCNC(=N)N)NC(C)=O)CSSC[C@@H](C(=O)N[C@@H](Cc2ccc(O)cc2)C(N)=O)NC(=O)[C@@H]2CCCN2C(=O)[C@H](CCCNC(=N)N)NC(=O)[C@H](Cc2ccccc2)NC(=O)[C@H](C(C)C)NC(=O)[C@H](CCCNC(=N)N)NC(=O)CNC(=O)[C@H](CC(C)C)NC1=O [compound 8] (Ac-RCMLGRVFRPCY-NH2; disulfide 2-11) |  |  | % Activation at 10 μM (human MCH receptor [1]): 123%; IC50 (human MCH receptor [2]): 0.16 nM
CSCC[C@@H]1NC(=O)[C@@H](NC(=O)[C@H](CCCNC(=N)N)NC(C)=O)CSSC[C@@H](C(N)=O)NC(=O)[C@@H]2CCCN2C(=O)[C@H](CCCNC(=N)N)NC(=O)[C@H](Cc2ccc(O)cc2)NC(=O)[C@H](C(C)C)NC(=O)[C@H](CCCNC(=N)N)NC(=O)[C@H](CC(N)=O)NC(=O)[C@H](CC(C)C)NC1=O [compound 51] (Ac-RCMLNRVYRPC-NH2; disulfide 2-11) |  | 106% | EC50 (human MCH receptor [1]; [4]): 23 nM
CSCC[C@@H]1NC(=O)[C@@H](NC(=O)[C@H](CCCNC(=N)N)NC(=O)[C@H](CC(C)C)NC(=O)[C@H](CCSC)NC(=O)[C@H](CC(=O)O)NC(=O)[C@H](Cc2ccccc2)NC(=O)[C@@H](N)CC(=O)O)CSSC[C@@H](C(=O)N[C@@H](Cc2c[nH]c3ccccc23)C(=O)N[C@@H](CCC(N)=O)C(=O)N[C@H](C(=O)O)C(C)C)NC(=O)[C@@H]2CCCN2C(=O)[C@H](CCCNC(=N)N)NC(=O)[C@H](Cc2ccc(O)cc2)NC(=O)[C@H](C(C)C)NC(=O)[C@H](CCCNC(=N)N)NC(=O)CNC(=O)[C@H](CC(C)C)NC1=O [compound 11] | 100% | 100% | % Activation at 10 μM (human MCH receptor [1]): 100%; Activity Activation % (human MCH receptor [1]; Table 2, D-amino acid analogs): 100%; Activity Activation % (human MCH receptor [1]; Table 3, N-methyl-amino acid analogs): 100%; Activity Activation % (human MCH receptor [1]; [5]): 100%; Activity Activation % (human MCH receptor [1]; Table 7, combinations and position 8): 100%
CSCC[C@@H]1NC(=O)[C@@H](NC(=O)[C@@H]2CCCN2C(C)=O)CSSC[C@@H](C(N)=O)NC(=O)[C@@H]2CCCN2C(=O)[C@H](CCCNC(=N)N)NC(=O)[C@H](Cc2ccc(O)cc2)NC(=O)[C@H](C(C)C)NC(=O)[C@H](CCCNC(=N)N)NC(=O)CNC(=O)[C@H](CC(C)C)NC1=O [compound 33] | 133% |  | 
CSCC[C@@H]1NC(=O)[C@@H](NC(=O)[C@H](CCCNC(=N)N)NC(C)=O)CSSC[C@@H](C(N)=O)NC(=O)[C@@H]2CCCN2C(=O)[C@H](CCCNC(=N)N)NC(=O)[C@H](Cc2ccc(O)cc2)NC(=O)[C@H](C(C)C)NC(=O)[C@H](CCCNC(=N)N)NC(=O)[C@H](CO)NC(=O)[C@H](CC(C)C)NC1=O [compound 52] (Ac-RCMLSRVYRPC-NH2; disulfide 2-11 (inferred)) |  | 104% | 
CSCC[C@@H]1NC(=O)[C@@H](NC(=O)[C@H](CO)NC(C)=O)CSSC[C@@H](C(N)=O)NC(=O)[C@@H]2CCCN2C(=O)[C@H](CCCNC(=N)N)NC(=O)[C@H](Cc2ccc(O)cc2)NC(=O)[C@H](C(C)C)NC(=O)[C@H](CCCNC(=N)N)NC(=O)CNC(=O)[C@H](CC(C)C)NC1=O [compound 35] | 120% |  | 
CSCC[C@@H]1NC(=O)[C@@H](NC(C)=O)CSSC[C@@H](C(N)=O)NC(=O)[C@@H]2CCCN2C(=O)[C@H](CCCNC(=N)N)NC(=O)[C@H](Cc2ccc(O)cc2)NC(=O)[C@H](C(C)C)NC(=O)[C@H](CCCNC(=N)N)NC(=O)CNC(=O)[C@H](CC(C)C)NC1=O [compound 38] | 82% |  | 
CSCC[C@@H]1NC(=O)[C@@H](NC(=O)[C@@H](N)CCCNC(=N)N)CSSC[C@@H](C(N)=O)NC(=O)[C@@H]2CCCN2C(=O)[C@H](CCCNC(=N)N)NC(=O)[C@H](Cc2ccc(O)cc2)NC(=O)[C@H](C(C)C)NC(=O)[C@H](CCCNC(=N)N)NC(=O)CNC(=O)[C@H](CC(C)C)NC1=O [compound 39] | 106% |  | 
CSCC[C@@H]1NC(=O)[C@@H](NC(=O)[C@H](CCCNC(=N)N)NC(C)=O)CSSC[C@@H](C(N)=O)NC(=O)[C@@H]2CCCN2C(=O)[C@H](CCCNC(=N)N)NC(=O)[C@H](Cc2ccc(O)cc2)NC(=O)[C@H](C(C)C)NC(=O)[C@H](CCCNC(=N)N)NC(=O)[C@H](CC(C)C)NC(=O)[C@H](CC(C)C)NC1=O [compound 48] |  | 106% | 
CSCC[C@@H]1NC(=O)[C@@H](NC(=O)[C@H](C)NC(C)=O)CSSC[C@@H](C(N)=O)NC(=O)[C@@H]2CCCN2C(=O)[C@H](CCCNC(=N)N)NC(=O)[C@H](Cc2ccc(O)cc2)NC(=O)[C@H](C(C)C)NC(=O)[C@H](CCCNC(=N)N)NC(=O)CNC(=O)[C@H](CC(C)C)NC1=O [compound 31] (Ac-ACMLGRVYRPC-NH2; disulfide 2-11 (inferred)) | 135% |  | 
CSCC[C@@H]1NC(=O)[C@@H](NC(=O)[C@H](CCCNC(=N)N)NC(C)=O)CSSC[C@@H](C(N)=O)NC(=O)[C@@H]2CCCN2C(=O)[C@H](CCCNC(=N)N)NC(=O)[C@H](Cc2ccc(O)cc2)NC(=O)[C@H](C(C)C)NC(=O)[C@H](CCCNC(=N)N)NC(=O)[C@H](C)NC(=O)[C@H](CC(C)C)NC1=O [compound 47] (Ac-RCMLARVYRPC-NH2; disulfide 2-11) |  | 104% | 
CSCC[C@@H]1NC(=O)[C@@H](NC(=O)[C@H](CCCNC(=N)N)NC(C)=O)CSSC[C@@H](C(N)=O)NC(=O)[C@@H]2CCCN2C(=O)[C@H](CCCNC(=N)N)NC(=O)[C@H](Cc2ccccc2)NC(=O)[C@H](C(C)C)NC(=O)[C@H](CCCNC(=N)N)NC(=O)CNC(=O)[C@H](CC(C)C)NC1=O [compound 62] |  |  | Activity Activation % (human MCH receptor [1]; [5]): 96%
CSCC[C@@H]1NC(=O)[C@@H](NC(=O)[C@H](CCC(=O)O)NC(C)=O)CSSC[C@@H](C(N)=O)NC(=O)[C@@H]2CCCN2C(=O)[C@H](CCCNC(=N)N)NC(=O)[C@H](Cc2ccc(O)cc2)NC(=O)[C@H](C(C)C)NC(=O)[C@H](CCCNC(=N)N)NC(=O)CNC(=O)[C@H](CC(C)C)NC1=O [compound 36] | 113% |  | 
CSCC[C@@H]1NC(=O)[C@@H](NC(=O)[C@H](CC(N)=O)NC(C)=O)CSSC[C@@H](C(N)=O)NC(=O)[C@@H]2CCCN2C(=O)[C@H](CCCNC(=N)N)NC(=O)[C@H](Cc2ccc(O)cc2)NC(=O)[C@H](C(C)C)NC(=O)[C@H](CCCNC(=N)N)NC(=O)CNC(=O)[C@H](CC(C)C)NC1=O [compound 34] | 96% |  | 
